# Measurements from patent US5629430A, “Trifluoromethylpyrroloindolecarboxylic acid ester and process for production thereof” (Kyorin Pharmaceutical Co., Ltd., priority 1992, dated 1997).
# Read-outs that look alike come from different tables or passages of the source.
# Legend:
# [1] = test system: P388 mouse leukemia cells; experiment: Activity against tumor cell growth (P388, MTT, 72 h); assay type: cell-based; settings: read-out: IC50 (50% growth inhibition concentration)
# Summary of the method: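 P388 cells at 1.5×10^5 cells/ml in RPMI1640 with 10% FBS, 2 mM glutamine and 5 μM 2-hydroxyethyldisulfide; DMSO-dissolved compound diluted in medium, 72 h at 37 °C, 5% CO2. MTT added for 3 h, formazan dissolved in HCl-isopropanol, A540 read. IC50 from absorbance ratio versus untreated cells.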
# Sarcoma-180 cells = experiment: Antineoplastic activity, mice having Sarcoma-180 cells transplanted subcutaneously; assay type: in vivo, mouse (female, CDR strain); settings: Mus musculus, Sarcoma-180, iv, 144 h, read-out: T/C (average tumor weight, dosed vs. solvent-dosed control); for response vs control in vivo at 0.25 mg/kg: i.v. 0.25 mg/kg single dose, tumor weighed six days after dosage
# Summary of the method: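 Female CDR mice, 5–6 weeks, implanted subcutaneously with 3.6×10^6 to 5×10^6 Sarcoma-180 cells; next day a single tail-vein dose of compound in DMSO diluted with 10% Emulfore EL620. Tumors excised and weighed six days post-dose; efficacy expressed as T/C ratio of mean tumor weights versus solvent controls.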
# Colon-26 cells = experiment: Antineoplastic activity, mice having Colon-26 cells transplanted subcutaneously; assay type: in vivo, mouse (female, CDF1 strain); settings: Mus musculus, Colon 26, iv, 168 h, read-out: T/C (average tumor weight, dosed vs. solvent-dosed control); for response vs control in vivo at 0.25 mg/kg: i.v. 0.25 mg/kg single dose on sixth day, tumor weighed one week after dosage
# Summary of the method: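 Female CDF1 mice had 1×10^6 Colon-26 cells implanted subcutaneously. On day 6 they got a single intravenous tail-vein dose of compound in DMSO/10% Emulfor EL620. Tumours were weighed one week later; activity is the T/C ratio of mean tumour weights versus vehicle controls.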
# P388 cells = experiment: Antineoplastic activity, mice having P388 cells transplanted in abdominal cavity; assay type: in vivo, mouse (female, CDF1 strain); settings: two mice, Cured: Survived for 60 days or longer
# Description: The test compound was dissolved in dimethylsulfoxide, and the solution was adequately diluted with 10% Emulfore EL620(produced by Rhone Poulenc Co.) to prepare the test compound solution. The antineoplastic activity was evaluated as below.
# To the abdominal cavity of a female mouse (CDF1 strain, 8 to 9 week age), 1×10^6 P388 cells were transplanted. Next day, the test medicine solution was injected intraperitonealy in a single dose. Five to eight mice were employed for the solvent-dosed control group, and two mice were employed for each of the dosed groups. The antineoplastic effect was evaluated by the ratio (T/C, %) of the average survival days of the dosed group (T) to the average survival days of the solvent-dosed control group(C). The T/C ratio of 130% or more is evaluated to be effective.
# "Cured": Survived for 60 days or longer
# [2] = P388 mouse leukemia cells, 72 h, 37° C., MTT
SMILES,"IC50 [1, 2] [mg/L]",response vs control in vivo at 0.25 mg/kg (Sarcoma-180 cells) [%],response vs control in vivo at 0.25 mg/kg (Colon-26 cells) [%],T/C in words: cure (Survived for 60 days or longer) (P388 cells; i.p. 0.25 mg/kg single dose),T/C in words: cure (Survived for 60 days or longer) (P388 cells; i.p. 0.125 mg/kg single dose),"IC50 ([1]; Mus musculus, P388, 72 h) [mg/L]",response vs control in vivo at 1 mg/kg (Sarcoma-180 cells) [%],response vs control in vivo at 1 mg/kg (Colon-26 cells) [%],T/C in words: cure (Survived for 60 days or longer) (P388 cells; i.p. 0.5 mg/kg single dose),response vs control in vivo at 0.5 mg/kg (Sarcoma-180 cells) [%],response vs control in vivo at 0.5 mg/kg (Colon-26 cells) [%]
"COC(=O)c1c(C(F)(F)F)[nH]c2c1C13CC1CN(C(=O)c1cc4cc(NC(=O)c5cc6ccccc6[nH]5)ccc4[nH]1)C3=CC2=O (centres unmarked) [Example 23, Methyl 2-[5-[(1H-indol-2-ylcarbonyl)amino]-1H-indol-2-ylcarbonyl]-6-trifluoromethyl-1,2,8,8a-tetrahydrocyclopropa[c]pyrrolo[3,2-e]indole-4 (5H)-one-7-carboxylate]",0.00086,16,12,Both cured,,,,,,,
"COC(=O)c1c(C(F)(F)F)[nH]c2c1C13CC1CN(C(=O)c1cc4cc(NC(=O)c5cc6ccccc6o5)ccc4[nH]1)C3=CC2=O (centres unmarked) [Example 24, Methyl 2-[5-[(benzofuran-2-ylcarbonyl)amino]-1H-indol-2-ylcarbonyl]-6-trifluoromethyl-1,2,8,8a-tetrahydrocyclopropa[c]pyrrolo[3,2-e]indole-4 (5H)-one-7-carboxylate]",0.00053,17,11,,Both cured,,,,,,
"COC(=O)c1c(C(F)(F)F)[nH]c2c(OC(=O)N3CCN(C)CC3)cc3c(c12)C(CBr)CN3C(=O)c1cc2cc(OC)c(OC)c(OC)c2[nH]1 (centres unmarked) [Example 47, Methyl 1-bromomethyl-5-(4-methylpiperazin-1-ylcarbonyl)oxy-7-trifluoromethyl-3-(5,6,7-trimethoxy-1H-indol-2-ylcarbonyl)-1,2,3,6-tetrahydropyrrolo[3,2-e]indole-8-carboxylate]",,,,,,0.031,19,7,Both cured,,
COC(=O)c1c(C(F)(F)F)[nH]c2c(OC(=O)N3CCN(C)CC3)cc3c(c12)C(CCl)CN3C(=O)c1cc2cc(NC(=O)c3cc4ccccc4o3)ccc2[nH]1 (centres unmarked) [Example 48],,,,,,0.08,8,6,Both cured,,
COC(=O)c1c(C(F)(F)F)[nH]c2c(OC(=O)N3CCN(C)CC3)cc3c(c12)C(CBr)CN3C(=O)c1cc2cc(NC(=O)c3cc4ccccc4o3)ccc2[nH]1 (centres unmarked) [Example 49],,,,,,0.089,,,Both cured,12,9
